Results from US20250144067A1, “PERSONALIZED STARVATION THERAPY FOR CANCER” (Faeth Therapeutics, Inc., priority 2021, published 2025).
Where a name gives a salt, the structure may show the parent alone. Read-outs that look alike come from different tables or passages of the source.

Assays:
[1] = system: NCI-H292 lung cancer cells; experiment: FDA drug screening, complete media vs cholesterol-free media with simvastatin (TABLE 2); type: cell-based, human
[2] = system: NCI-H292 lung cancer cells; experiment: FDA drug screening, complete media vs cholesterol-free media without statin (TABLE 1); type: cell-based, human
[3] = NCI-H292 cells, cholesterol-free media with simvastatin 0.04 μM, FDA drug library screen (TABLE 2)
[4] = NCI-H292 cells, complete media, FDA drug library screen (TABLE 2)
[5] = complete media minus cholesterol-free media + simvastatin (0.04 μM), >0 enhanced anti-cancer activity, about 0 neutral, <0 antagonist
[6] = NCI-H292 cells, cholesterol-free media without statin
[7] = complete vs cholesterol-free media, greater than 0 enhanced anti-cancer activity, about 0 neutral, below 0 antagonists
[8] = NCI-H292 cells, FDA library drug in cholesterol-free media with simvastatin 0.04 μM
[9] = NCI-H292 cells, FDA library drug in complete media
[10] = complete media vs cholesterol-free media + simvastatin (0.04 μM), >0 enhanced anti-cancer activity, about 0 neutral, <0 antagonist
[11] = NCI-H292 cells, cholesterol-free media with simvastatin 0.04 μM, cell growth value in FDA drug screen
[12] = NCI-H292 cells, complete media, cell growth value in FDA drug screen
[13] = complete media minus cholesterol-free media + simvastatin, >0 enhanced anti-cancer activity, about 0 neutral, <0 antagonist
[14] = Complete minus Cholesterol-free, greater than 0 enhanced anti-cancer activity, about 0 neutral, below 0 antagonists
[15] = NCI-H292 cells in cholesterol-free media without statin
[16] = NCI-H292 cells in complete media
[17] = NCI-H292 cells, drug in cholesterol-free media with simvastatin 0.04 μM
[18] = NCI-H292 cells, drug in complete media
[19] = Complete minus Cholesterol-free, greater than 0 enhanced anti-cancer activity, about 0 neutral, below 0 antagonist
[20] = NCI-H292 cells, FDA drug library screen, cholesterol-free media without statin
[21] = NCI-H292 cells, FDA drug library screen, complete media
[22] = NCI-H292 cells, FDA drug library screen, cholesterol-free media with simvastatin 0.04 μM
[23] = NCI-H292 cells, cholesterol-free media without statin, FDA drug library screen
[24] = NCI-H292 cells, complete media, FDA drug library screen
[25] = complete vs cholesterol-free media, >0 enhanced anti-cancer activity, about 0 neutral, <0 antagonist
[26] = Complete minus Cholesterol-free, >0 enhanced anti-cancer activity, about 0 neutral, <0 antagonist

Molecule: C[N+](C)(C)CCOP(=O)([O-])OP(=O)([O-])OC[C@H]1O[C@@H](n2ccc(N)nc2=O)[C@H](O)[C@@H]1O.[Na+] [Citicoline (sodium)]
- Cholesterol-free media + simvastatin (0.04 μM) [1, 3]: 1.337
- Complete Media [1, 4]: 1.292
- Difference [1, 5]: −0.04
- Cholesterol-free [2, 6]: 1.151
- Complete ([2]; NCI-H292 cells, complete media): 0.8125
- Difference [2, 7]: −0.34

Molecule: N=C(N)NCCC[C@H](N)C(=O)O [L-Arginine]
- Cholesterol-free media + simvastatin (0.04 μM) [1]: 1.189
- Complete Media [1]: 1.484
- Difference [1]: 0.29
- Cholesterol-free [2]: 0.984
- Complete [2]: 1.115
- Difference [2]: 0.13

Molecule: Cc1c(OCC(F)(F)F)ccnc1C[S+]([O-])c1nc2ccccc2[nH]1 (centres unmarked) [Lansoprazole]
- Cholesterol-free media + simvastatin (0.04 μM) [1, 8]: 1.103
- Complete Media [1, 9]: 0.6471
- Difference [1, 10]: −0.46
- Cholesterol-free [2, 6]: 1.34
- Complete ([2]; NCI-H292 cells, complete media): 0.9564
- Difference [2, 7]: −0.38

Molecule: O=C1Cc2cc(CCN3CCN(c4nsc5ccccc45)CC3)c(Cl)cc2N1 [Ziprasidone]
- Cholesterol-free media + simvastatin (0.04 μM) [1, 11]: 0.9155
- Complete Media [1, 12]: 0.9832
- Difference [1, 13]: 0.07
- Difference [2, 14]: −0.52
- Cholesterol-free [2, 15]: 1.408
- Complete [2, 16]: 0.89

Molecule: CCCc1nc(C(C)(C)O)c(C(=O)O)n1Cc1ccc(-c2ccccc2-c2nnn[nH]2)cc1 [Olmesartan]
- Cholesterol-free media + simvastatin (0.04 μM) [1, 17]: 1.131
- Complete Media [1, 18]: 0.942
- Difference [1, 10]: −0.19
- Cholesterol-free [2, 6]: 1.93
- Complete ([2]; NCI-H292 cells, complete media): 1.465
- Difference [2, 7]: −0.46

Molecule: O=C1OC2(c3ccc(O)cc3Oc3cc(O)ccc32)c2ccccc21 [Fluorescein]
- Cholesterol-free media + simvastatin (0.04 μM) [1, 17]: 1.054
- Complete Media [1, 18]: 0.8464
- Difference [1, 10]: −0.21
- Cholesterol-free [2, 6]: 1.153
- Complete ([2]; NCI-H292 cells, complete media): 0.6958
- Difference [2, 7]: −0.46

Molecule: CO/N=C(\C(=O)N[C@@H]1C(=O)N2C(C(=O)OC(C)OC(C)=O)=C(COC(N)=O)CS[C@H]12)c1ccco1 (some centres unmarked) [Cefuroxime axetil]
- Cholesterol-free media + simvastatin (0.04 μM) [1, 11]: 1.05
- Complete Media [1, 12]: 1.073
- Difference [1, 13]: 0.02
- Difference [2, 19]: −0.18
- Cholesterol-free [2, 20]: 0.8605
- Complete [2, 21]: 0.6767

Molecule: O=S(=O)(c1cccc2cnccc12)N1CCCNCC1 [Fasudil (Hydrochloride)]
- Cholesterol-free media + simvastatin (0.04 μM) [1, 22]: 0.9921
- Complete Media [1, 21]: 1.233
- Difference [1, 13]: 0.24
- Difference [2, 19]: −0.12
- Cholesterol-free [2, 20]: 1.121
- Complete [2, 21]: 1

Molecule: C=C(CC)C(=O)c1ccc(OCC(=O)O)c(Cl)c1Cl [Ethacrynic acid]
- Cholesterol-free media + simvastatin (0.04 μM) [1, 11]: 1.155
- Complete Media [1, 12]: 1.268
- Difference [1, 13]: 0.11
- Cholesterol-free [2, 23]: 0.8126
- Complete [2, 24]: 0.956
- Difference [2, 25]: 0.14

Molecule: CC(CCc1ccccc1)NCC(O)c1ccc(O)c(C(N)=O)c1 (centres unmarked) [Labetalol (hydrochloride)]
- Cholesterol-free media + simvastatin (0.04 μM) [1, 3]: 1.147
- Complete Media [1, 4]: 1.128
- Difference [1, 5]: −0.02
- Difference [2, 14]: −0.64
- Complete [2, 16]: 0.9816

Molecule: OCc1ccccc1 [Benzyl alcohol]
- Cholesterol-free media + simvastatin (0.04 μM) [1, 22]: 0.8765
- Complete Media [1, 21]: 1.062
- Difference [1, 13]: 0.19
- Difference [2, 19]: −0.14
- Cholesterol-free [2, 20]: 1.033
- Complete [2, 21]: 0.8945

Molecule: CC(=O)O[C@@]12CO[C@@H]1C[C@H](O)[C@@]1(C)C(=O)[C@H](O)C3=C(C)[C@@H](OC(=O)[C@H](O)[C@@H](NC(=O)OC(C)(C)C)c4ccccc4)C[C@@](O)([C@@H](OC(=O)c4ccccc4)[C@H]21)C3(C)C [Docetaxel (Trihydrate)]
- Cholesterol-free media + simvastatin (0.04 μM) [1, 22]: 0.3708
- Complete Media [1, 21]: 0.2794
- Difference [1, 10]: −0.09
- Difference [2, 26]: −0.05
- Cholesterol-free [2, 23]: 0.2507
- Complete [2, 24]: 0.2029

Molecule: Sisomicin (sulfate)
- Cholesterol-free media + simvastatin (0.04 μM) [1, 11]: 0.697
- Complete Media [1, 12]: 0.7346
- Difference [1, 13]: 0.04
- Difference [2, 26]: −0.04
- Cholesterol-free [2, 23]: 0.9293
- Complete [2, 24]: 0.8918

Molecule: Cc1ccnc2c1NC(=O)c1cccnc1N2C1CC1 [Nevirapine]
- Cholesterol-free media + simvastatin (0.04 μM) [1, 8]: 1.384
- Complete Media [1, 9]: 0.9254
- Difference [1, 10]: −0.46
- Cholesterol-free [2, 23]: 0.7658
- Complete [2, 24]: 1.137
- Difference [2, 25]: 0.37

Molecule: NS(=O)(=O)c1cc2c(cc1Cl)NC(C(Cl)Cl)NS2(=O)=O (centres unmarked) [Trichlormethiazide]
- Cholesterol-free media + simvastatin (0.04 μM) [1, 11]: 1.02
- Complete Media [1, 12]: 1.045
- Difference [1, 13]: 0.02
- Cholesterol-free [2, 6]: 1.351
- Complete ([2]; NCI-H292 cells, complete media): 0.9482
- Difference [2, 7]: −0.40

Molecule: CN1CCc2nc(C(=O)N[C@@H]3C[C@@H](C(=O)N(C)C)CC[C@@H]3NC(=O)C(=O)Nc3ccc(Cl)cn3)sc2C1 [Edoxaban]
- Cholesterol-free media + simvastatin (0.04 μM) [1, 17]: 1.032
- Complete Media [1, 18]: 0.8097
- Difference [1, 10]: −0.22
- Cholesterol-free [2, 23]: 1.603
- Complete [2, 24]: 1.759
- Difference [2, 25]: 0.16

Molecule: C[N+](C)(C)CCOP(=O)(O)OP(=O)([O-])OC[C@H]1O[C@@H](n2ccc(N)nc2=O)[C@H](O)[C@@H]1O [Citicoline]
- Cholesterol-free media + simvastatin (0.04 μM) [1, 22]: 0.6677
- Complete Media [1, 21]: 1.557
- Difference [1, 13]: 0.89
- Cholesterol-free [2, 23]: 0.7726
- Complete [2, 24]: 1.062
- Difference [2, 25]: 0.29

Molecule: N#Cc1cc(NC(=O)C(=O)O)c(Cl)c(NC(=O)C(=O)O)c1.NC(CO)(CO)CO.NC(CO)(CO)CO [Lodoxamide (tromethamine)]
- Cholesterol-free media + simvastatin (0.04 μM) [1, 22]: 0.9835
- Complete Media [1, 21]: 1.282
- Difference [1, 13]: 0.30
- Difference [2, 19]: −0.13
- Cholesterol-free [2, 20]: 0.8848
- Complete [2, 21]: 0.7586

Molecule: CC1(C)NC(=O)N(c2ccc([N+](=O)[O-])c(C(F)(F)F)c2)C1=O [Nilutamide]
- Cholesterol-free media + simvastatin (0.04 μM) [1, 8]: 1.474
- Complete Media [1, 9]: 1.003
- Difference [1, 10]: −0.47
- Difference [2, 14]: −0.63
- Cholesterol-free [2, 15]: 1.565
- Complete [2, 16]: 0.9342

Molecule: C/C=C/C1=C(C(=O)O)N2C(=O)[C@@H](NC(=O)[C@H](N)c3ccc(O)cc3)[C@H]2SC1.O [Cefprozil (monohydrate)]
- Cholesterol-free media + simvastatin (0.04 μM) [1, 22]: 0.9773
- Complete Media [1, 21]: 1.216
- Difference [1, 13]: 0.24
- Cholesterol-free [2, 6]: 1.442
- Complete ([2]; NCI-H292 cells, complete media): 1.109
- Difference [2, 7]: −0.33

Molecule: COc1ccc(-c2cc(=S)ss2)cc1 [Anethole (trithione)]
- Cholesterol-free media + simvastatin (0.04 μM) [1, 8]: 1.972
- Complete Media [1, 9]: 1.115
- Difference [1, 10]: −0.86
- Difference [2, 19]: −0.18
- Cholesterol-free [2, 20]: 1.563
- Complete [2, 21]: 1.382

Molecule: COC(=O)c1ccc2c(c1)NC(=O)/C2=C(\Nc1ccc(N(C)C(=O)CN2CCN(C)CC2)cc1)c1ccccc1 [Nintedanib]
- Cholesterol-free media + simvastatin (0.04 μM) [1, 3]: 0.7141
- Complete Media [1, 4]: 0.7297
- Difference [1, 5]: 0.02
- Difference [2, 19]: −0.17
- Cholesterol-free [2, 20]: 0.7067
- Complete [2, 21]: 0.5362

Molecule: CN(C)C(=O)Oc1cc(OC(=O)N(C)C)cc(C(O)CNC(C)(C)C)c1 (centres unmarked) [Bambuterol hydrochloride]
- Cholesterol-free media + simvastatin (0.04 μM) [1, 11]: 1.184
- Complete Media [1, 12]: 1.226
- Difference [1, 13]: 0.04
- Cholesterol-free [2, 23]: 1.362
- Complete [2, 24]: 1.472
- Difference [2, 25]: 0.11
